Columns and labels:
[1] = biological target: T1, purified recombinant LDHA (Homo sapiens, UniProt P00338); experiment: In vitro LDH activity assay with purified recombinant LDHA; type: biochemical; settings: up to a concentration of 1 mM
T1 construct: made in house
Description: A purification of recombinant LDHA was performed as described previously. LDH activity was determined by measuring the decrease of absorbance at 340 nm due to the oxidation of NADH in 20 mM HEPES-K^+, 0.05% bovine serum albumin (BSA), 20 μM NADH, and 2 mM pyruvate (Sigma-Aldrich, St. Louis, MO, USA) at a pH of 7.2 using a spectrofluorometer (Spectramax M2, Molecular Devices, San Jose, CA, USA; excitation 340 nm; emission 460 nm), as described previously. Ten nanograms of recombinant LDHA protein were used in the in vitro LDH activity assay. One microgram of total protein from cell or tissue lysates was used for intracellular or in vivo LDH assays.

[2] = tested on: LDHA; set-up: method as in PMID 30850682; settings: through reducing its binding to substrate, pyruvate; cited from earlier work
[3] = biological target: T2, purified recombinant human LDHA (rhLDHA) (Homo sapiens, UniProt P00338); experiment: NADH binding assay (LDHA binding to Cibacron Blue 3GA agarose); settings: machilin A 10 and 100 μM; NADH positive control
T2 construct: made in house
Description: An NADH binding assay was performed as described previously. The NADH binding ability of LDHA was determined by measuring the affinity of LDHA to agarose-immobilized Cibacron Blue 3GA, which resembles NADH. Then, 400 ng of purified recombinant human LDHA (rhLDHA) was incubated with NADH or MA, followed by incubation with 30 µL of Cibacron Blue agarose at 4 °C for 2 h. After a washing step with 20 mM Tris-HCl (pH 8.6), LDHA bound to beads was eluted in PBS using a sodium dodecyl sulfate (SDS) gel running buffer and was then subjected to–SDS-polyacrylamide gel electrophoresis (SDS-PAGE) and western blotting. Standardized amounts of protein were used in each reaction.

[4] = biological target: LDHA (Homo sapiens, UniProt P00338); experiment: Isothermal titration calorimetry (ITC) of LDHA and NADH; set-up: Full-length LDHA (residues 1–331) was obtained from cDNA by polymerase chain reaction (PCR); inferred from pET-28a vector and Ni-NTA purification; made in house; host or cells: E. coli BL21 (DE3); settings: 25 °C, read-out: apparent KD of binding to LDHA
Description: compounds. The acquisition time was 1.704 sec, relaxation delay was 1.5 sec and 128 transient were collected. Lactate was quantified using Chenomx NMR Suite 7.1 professional with the Chenomx 600 MHz library database (Chenomx Inc., Edmonton, Alberta, Canada, ).
1.4. Isothermal Titration Calorimetry
Isothermal titration calorimetry (ITC) measurements were carried out using MicroCal auto_iTC200 (GE healthcare, Chicago, IL, USA) at 25 °C. The purified LDHA protein was dialyzed in buffer containing 50 mM Tris-HCl (pH 8.0) and 200 mM NaCl at a concentration of 0.1 mM. NADH was solubilized in the same buffer at concentrations of 1 to 2 mM. The NADH was titrated into the LDHA solution onto an ITC200 microcalorimeter cell. The raw data were integrated and normalized using MicroCal Origin 7.0 software (GE healthcare). The determined binding affinity (KA) and enthalpy changes (ΔH) values were used to calculate ΔS from the standard thermodynamic equation.
For generation of bone marrow-derived macrophage (BMDM), bone marrow cells were extracted from C57BL/6 mice by surgery, and treated with M-CSF (10ng/ml) for 7days. BMDM cells were incubated with the indicated concentration of culture media with MA and lactate or not. The cells were washed with phosphate buffered saline (PBS) and fixed in 3.7% formaldehyde in PBS for 1h. […]

SMILES: OCc1ccc2c(c1)OCO2 [piperonyl alcohol, reference compound]
- effect on LDHA activity [1]: did not affect LDHA activity

SMILES: FC(F)(F)c1ccc([Se]c2ccccc2)cc1 [PSTMB, 1-(phenylseleno)-4-(trifluoromethyl)benzene]
- effect on LDHA activity [2]: inhibited LDHA activity

SMILES: c1ccc2c(c1)OCO2 [1,3-benzodioxole, reference compound]
- effect on LDHA activity [1]: did not affect LDHA activity

SMILES: NC(=O)C1=CN(C2OC(COP(=O)(O)OP(=O)(O)OCC3OC(n4cnc5c(N)ncnc54)C(O)C3O)C(O)C2O)C=CC1 (centres unmarked) [NADH, 1,4-dihydronicotinamide adenine dinucleotide, reference compound]
- LDHA binding to Cibacron Blue Agarose beads (NADH mimic) [3]: prohibited LDHA binding
- Kd [4]: 10 µM
